This note sets out measurements from patent US20220388990A1, “INHIBITORS OF CYCLIN-DEPENDENT KINASES” (Kinnate Biopharma Inc., priority 2019, published 2022).

Counter-ions that a name gives are not always drawn.

One may read the IC50 as the concentration at which inhibition is half-maximal.

T2 sequence (Q9NYV4 whole entry): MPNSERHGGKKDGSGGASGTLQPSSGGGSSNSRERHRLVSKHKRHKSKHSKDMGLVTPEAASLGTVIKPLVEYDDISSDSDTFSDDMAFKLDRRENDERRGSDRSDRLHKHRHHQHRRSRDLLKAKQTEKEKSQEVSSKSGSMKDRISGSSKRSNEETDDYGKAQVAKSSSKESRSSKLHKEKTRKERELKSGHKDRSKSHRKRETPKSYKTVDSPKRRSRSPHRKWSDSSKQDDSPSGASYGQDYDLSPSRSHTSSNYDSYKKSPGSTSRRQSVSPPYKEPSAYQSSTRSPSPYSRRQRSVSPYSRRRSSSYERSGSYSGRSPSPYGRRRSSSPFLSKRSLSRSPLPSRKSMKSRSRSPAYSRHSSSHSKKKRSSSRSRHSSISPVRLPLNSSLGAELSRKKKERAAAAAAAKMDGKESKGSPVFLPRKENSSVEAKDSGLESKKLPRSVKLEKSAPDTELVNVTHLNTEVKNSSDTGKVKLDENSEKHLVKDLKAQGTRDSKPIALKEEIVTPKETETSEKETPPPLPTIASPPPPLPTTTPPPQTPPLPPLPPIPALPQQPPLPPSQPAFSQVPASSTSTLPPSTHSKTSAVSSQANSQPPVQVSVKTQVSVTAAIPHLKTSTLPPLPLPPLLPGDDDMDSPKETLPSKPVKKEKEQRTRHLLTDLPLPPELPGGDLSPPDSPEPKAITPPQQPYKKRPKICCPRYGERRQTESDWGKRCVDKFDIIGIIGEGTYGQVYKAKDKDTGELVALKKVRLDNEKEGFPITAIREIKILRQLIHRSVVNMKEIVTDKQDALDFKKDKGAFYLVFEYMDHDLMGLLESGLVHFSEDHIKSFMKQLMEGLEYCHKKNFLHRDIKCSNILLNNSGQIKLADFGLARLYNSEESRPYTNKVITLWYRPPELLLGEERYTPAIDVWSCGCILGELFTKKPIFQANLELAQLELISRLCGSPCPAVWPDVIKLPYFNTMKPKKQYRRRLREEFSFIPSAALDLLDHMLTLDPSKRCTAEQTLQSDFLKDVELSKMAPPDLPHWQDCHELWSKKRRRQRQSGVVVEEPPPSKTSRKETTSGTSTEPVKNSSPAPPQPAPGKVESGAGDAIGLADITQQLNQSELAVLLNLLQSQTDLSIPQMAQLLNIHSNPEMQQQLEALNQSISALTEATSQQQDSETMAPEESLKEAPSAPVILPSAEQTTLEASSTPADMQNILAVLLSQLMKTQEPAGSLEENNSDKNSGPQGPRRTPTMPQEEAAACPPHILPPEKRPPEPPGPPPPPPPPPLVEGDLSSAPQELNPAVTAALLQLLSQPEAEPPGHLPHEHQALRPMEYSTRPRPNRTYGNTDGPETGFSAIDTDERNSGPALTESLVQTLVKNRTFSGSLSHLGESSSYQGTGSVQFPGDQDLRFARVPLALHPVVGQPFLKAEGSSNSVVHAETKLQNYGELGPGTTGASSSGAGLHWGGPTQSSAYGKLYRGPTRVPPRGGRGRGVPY
T2 sequence (O75909 whole entry partner): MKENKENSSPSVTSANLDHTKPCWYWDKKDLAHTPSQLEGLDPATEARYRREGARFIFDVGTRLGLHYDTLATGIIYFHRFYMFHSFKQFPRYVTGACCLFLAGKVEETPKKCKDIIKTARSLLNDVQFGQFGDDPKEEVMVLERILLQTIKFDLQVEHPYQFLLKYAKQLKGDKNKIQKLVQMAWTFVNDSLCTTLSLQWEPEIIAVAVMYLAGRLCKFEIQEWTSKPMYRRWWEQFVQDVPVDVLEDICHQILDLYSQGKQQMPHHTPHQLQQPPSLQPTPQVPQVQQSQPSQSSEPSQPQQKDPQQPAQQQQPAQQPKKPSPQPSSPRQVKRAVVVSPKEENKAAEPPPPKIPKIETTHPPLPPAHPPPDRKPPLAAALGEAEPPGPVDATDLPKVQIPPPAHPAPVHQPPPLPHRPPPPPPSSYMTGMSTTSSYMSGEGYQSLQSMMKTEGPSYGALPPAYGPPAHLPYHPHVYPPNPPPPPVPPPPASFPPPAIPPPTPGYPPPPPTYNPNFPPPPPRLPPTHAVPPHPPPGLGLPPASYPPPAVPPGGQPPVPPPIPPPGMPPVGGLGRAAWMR

In the first assay the target is T1, CDK12 wt/CycK (Homo sapiens, UniProt Q9NYV4).
T1 construct: either as full-length or enzymatically active fragments
T1 sequence (Q9NYV4 whole entry, the tested form may be a part): as the sequence (Q9NYV4 whole entry) above
T1 sequence (O75909 whole entry partner, the tested form may be a part): as the sequence (O75909 whole entry partner) above
Kind of assay: Radiometric protein kinase assay (33PanQinase), assay condition 2, thiol containing conditions. The class given is biochemical. The settings on record: thiol containing conditions (1.2 mM DTT), ATP 0.3 μM. On the procedure: Example 1—Assay condition 2 (thiol containing conditions)
Objective: The IC50 profile of test compounds was determined using protein kinases. IC50 values were measured by testing 10 concentrations (1×10^−04M, 3×10^−05M, 1×10^−05M, 3×10^−06M, 1×10^−06M, 3×10^−07M, 1×10^−07M, 3×10^−08M, 1×10^−08M, and 3×10^−09M) of each compound in singlicate.
Test compounds: The compounds were provided as pre-weighed powders in vials. The compounds were dissolved to 1×10^−02M by adding DMSO. 100 μl of each of the resulting stock solutions were transferred into column 2 of four 96 well “master plates”
Prior to testing, the 1×10^−02M stock solutions in column 2 of the master plates were subjected to a serial, semi-logarithmic dilution using 100% DMSO as a solvent. […] Column 1 and 7 were filled with 100% DMSO as controls. Subsequently, 2×10 μl from each well of the serial diluted copy plates were aliquoted with a 96 channel pipettor into two identical sets of “compound dilution plates”.
In the process, 90 μl H2O were added to each well of a set of compound dilution plates. To minimize potential precipitation, the H2O was added to each plate only a few minutes before the transfer of the compound solutions into the assay plates. Each plate was shaken thoroughly, resulting in a “compound dilution plate/ 10% DMSO”.
For the assays, 5 μl solution from each well of the compound dilution plates/10% DMSO were transferred into the assay plates. The final volume of the assay was 50 μl. All compounds were tested at 10 final assay concentrations in the range from 1×10^−04M to 3×10^−09M, in singlicate. The final DMSO concentration in the reaction cocktails was 1% in all cases.
Recombinant protein kinases: All protein kinases were expressed in Sf9 insect cells or in E.coli as recombinant GST-fusion proteins or His-tagged proteins, either as full-length or enzymatically active fragments. All kinases were produced from human cDNAs and purified by either GSH-affinity chromatography or immobilized metal. Affinity tags were removed from a number of kinases during purification. The purity of the protein kinases was examined by SDS-PAGE/Coomassie staining, the identity was checked by mass spectroscopy.
Protein kinase assay: A radiometric protein kinase assay (^33PanQinase® Activity Assay) was used for measuring the kinase activity. All kinase assays were performed in 96-well FlashPlates™ from PerkinElmer (Boston, MA, USA) in a 50 μl reaction volume. The reaction cocktail was pipetted in four steps in the following order: • 20 μl of assay buffer (standard buffer) • 5μl of ATP solution (in H2O) • 5μl of test compound (in 10% DMSO) • 20 μl enzyme/substrate mix
The assay for all protein kinases contained 70 mM HEPES-NaOH pH 7.5, 3 mM MgCl2, 3 mM MnCl2, 3 μM Na-orthovanadate, 1.2 mM DTT, 50 μg/ml PEG20000, ATP (variable concentrations, corresponding to the apparent ATP-K. of the respective kinase), [γ-^33P]-ATP (approx. 9×10^05cpm per well), protein kinase, and substrate.
The following amounts of enzyme and substrate were used per well:
The reaction cocktails were incubated at 30° C. for 60 minutes. The reaction was stopped with 50 μl of 2% (v/v) H3PO4, plates were aspirated and washed two times with 200 μl 0.9% (w/v) NaCl. Incorporation of ^33Pi was determined with a microplate scintillation counter (Microbeta, Wallac). All assays were performed with a BeckmanCoulter/SAGIANTM Core System.
Evaluation of raw data: The median value of the counts in column 1 (n=8) of each assay plate was defined as “low control”. This value reflects unspecific binding of radioactivity to the plate in the absence of a protein kinase but in the presence of the substrate. The median value of the counts in column 7 of each assay plate (n=8) was taken as the “high control”, i.e. full activity in the absence of any inhibitor. The difference between high and low control was taken as 100% activity. […]
With `C=CC(=O)Nc1ccc2c(N3CC[C@@H](Nc4ncc(C#N)cn4)C3)nc(OCC(F)(F)F)nc2c1` [Example 32, (R)—N-(4-(3-((5-cyanopyrimidin-2-yl)amino)pyrrolidin-1-yl)-2-(2,2,2-trifluoroethoxy)quinazolin-7-yl)acrylamide], the IC50 is 100 to 1000 nM.
Consider `CC#CC(=O)Nc1ccc2c(N3CC[C@@H](Nc4ncc(Br)cn4)C3)nccc2c1` [Example 33, (R)—N-(1-(3-((5-bromopyrimidin-2-yl)amino)pyrrolidin-1-yl)isoquinolin-6-yl)but-2-ynamide], for which the IC50 was not above 100 nM.

The next assay concerns the target T2, CDK12 (Homo sapiens, UniProt Q9NYV4).
T2 construct: ProQinase (named as the party running the assay)
Description: Radiometric protein kinase assay (33PanQinase), assay condition 1, thiol-free conditions. The assay is classed as biochemical. The settings on record: thiol-free conditions (1 mM TCEP), ATP at apparent Km. On the procedure:
Example 2 —Assay condition 1 (thiol-free conditions)
The IC50 profile of compounds was determined using protein kinase in a customized, thiol free assay. IC50 values were measured by testing 10 concentrations (1×10^−05 M to 3×10^−10 M) of each test compound in singlicate against each kinase of interest. Prior to testing, the 1×10^−03M stock solutions in column 2 of the master plates were subjected to a serial, semi-logarithmic dilution using 100% DMSO as a solvent. […] Column 1 and 7 were filled with 100% DMSO as controls. Subsequently, 2×10 microliter from each well of the serial diluted copy plates were aliquoted with a 96 channel pipettor into two identical sets of “compound dilution plates”. All plates were barcoded for automated identification and tracking purposes. IC50 values were measured by testing 10 concentrations (1×10^−05 M to 3×10^−10 M) of each compound in singlicate. All compounds were stored as powder until being solubilized in DMSO. Solubilized compounds were stored as 1×10^−02 M/100% DMSO stock solutions. Prior to the assay process, 90 microliters of H2O were added to each well of a set of compound dilution plates. To minimize potential precipitation, the H2O was added to each plate only a few minutes before the transfer of the compound solutions into the assay plates. Each plate was shaken thoroughly, resulting in compound dilution plates with a final of 10% DMSO. For each assay, 5 microliters of solution from each well of the compound dilution plates/10% DMSO were transferred into the assay plate. The final volume of the assay was 50 μl. All compounds were tested at 10 final assay concentrations in the range from 1×10^−05 M to 3×10^−10 M, in singlicate. The final DMSO concentration in the reaction cocktails was 1% in all cases. A radiometric protein kinase assay (33PanQinase® Activity Assay) was used for measuring the kinase activity of the protein kinase. All kinase assays were performed in 96-well FlashPlates™ from PerkinElmer (Boston, Mass., USA) in a 50 microliter reaction volume. The reaction cocktail was pipetted in four steps in the following order: 20 microliter of assay buffer (standard buffer) 5 microliter of ATP solution (in H2O) 5 microliter of test compound (in 10% DMSO) 20 microliter enzyme/subtrate mix. Each assay for the protein kinase contained 70 mM HEPES-NaOH pH 7.5, 3 mM MgCl2, 3 mM MnCl2, 3 microM Na-orthovanadate, 1 mM TCEP, 50 μg/ml PEG20000, ATP (corresponding to the apparent ATP-Km of the kinase, see Table A), [gamma-33P]-ATP (approx. 6×10×E5 cpm per well), with the protein kinase and relevant substrate being used in pre-determined amounts, depending on the kinase in question. For all experiments labeled as “Thiol-free”, all glutathione was exchanged from protein preparations so as to be removed from the assay and final buffer conditions contained no thiol- containing reagents. This was done so there would be no interference with the key cysteines in the proteins of interest.
For data analysis, the median value of the counts in column 1 (n=8) of each assay plate was defined as “low control”. This value reflects unspecific binding of radioactivity to the plate in the absence of a protein kinase but in the presence of the substrate. The median value of the counts in column 7 of each assay plate (n=8) was taken as the “high control”, i.e. full activity in the absence of any inhibitor. The difference between high and low control was taken as 100% activity. As part of the data evaluation the low control value from a particular plate was subtracted from the high control value as well as from all 80 “compound values” of the corresponding plate. The residual activity (in %) for each well of a particular plate was calculated by using the following formula:
Res. Activity (%)=100×[(cpm of compound−low control)/(high control−low control)] […]
As for `C=CC(=O)Nc1ccc2c(N3CC[C@@H](Nc4ncc(C#N)cn4)C3)nc(C)nc2c1` [Example 30, (R)—N-(4-(3-((5-cyanopyrimidin-2-yl)amino)pyrrolidin-1-yl)-2-methylquinazolin-7-yl)acrylamide], the IC50 was not above 100 nM.
Still for that read-out and setting: as for `C=CC(=O)Nc1ccc2c(N3CC[C@@H](Nc4ncc(C#N)cn4)C3)nc(N)nc2c1` [Example 31, (R)—N-(2-amino-4-(3-((5-cyanopyrimidin-2-yl)amino)pyrrolidin-1-yl)quinazolin-7-yl)acrylamide], the figure is not above 100 nM; as for `C=CC(=O)Nc1ccc2c(N3CC[C@@H](Nc4cc5c(cn4)cnn5CC)C3)ncnc2c1` [Example 34, (R)—N-(4-(3-((1-ethyl-1H-pyrazolo[4,3-c]pyridin-6-yl)amino)pyrrolidin-1-yl)quinazolin-7-yl)acrylamide], not above 100 nM.
As to `C=CC(=O)N(C)c1ccc2c(N3CC[C@@H](Nc4ncc(Br)cn4)C3)nc(N3CCN(C)CC3)nc2c1` [Example 43, (R)—N-(4-(3-((5-bromopyrimidin-2-yl)amino)pyrrolidin-1-yl)-2-(4-methylpiperazin-1-yl)quinazolin-7-yl)-N-methylacrylamide], the IC50 is not above 100 nM.
With `C#Cc1cnc(N[C@@H]2CCN(c3nccc4cc(N(C)C(=O)C=C)ccc34)C2)nc1` [Example 44, (R)—N-(1-(3-((5-ethynylpyrimidin-2-yl)amino)pyrrolidin-1-yl)isoquinolin-6-yl)-N-methylacrylamide], the IC50 was not above 100 nM.
As to `C=CC(=O)Nc1ccc2c(N3CC[C@@H](Nc4ncc(C#N)cn4)C3)nnc(N3CCC3)c2c1` [Example 45, (R)—N-(4-(azetidin-1-yl)-1-(3-((5-cyanopyrimidin-2-yl)amino)pyrrolidin-1-yl)phthalazin-6-yl)acrylamide formate], the IC50 is not above 100 nM.
On the same count and under the same terms, as for `C#Cc1cnc(N[C@@H]2CCN(c3nccc4cc(NC(=O)C=C)ccc34)C2)nn1` [Example 47, (R)—N-(1-(3-((6-ethynyl-1,2,4-triazin-3-yl)amino)pyrrolidin-1-yl)isoquinolin-6-yl)acrylamide], the figure is not above 100 nM.
For `C#Cc1cnc(N[C@@H]2CCN(c3nccc4cc(NC(=O)C=C)ccc34)C2)nc1` [Example 48, (R)—N-(1-(3-((5-ethynylpyrimidin-2-yl)amino)pyrrolidin-1-yl)isoquinolin-6-yl)acrylamide], the IC50 was not above 100 nM.
As for `C=CC(=O)Nc1ccc2c(N3CC[C@@H](Nc4ncc(C#N)cn4)C3)nncc2c1` [Example 49, (R)—N-(1-(3-((5-cyanopyrimidin-2-yl)amino)pyrrolidin-1-yl)phthalazin-6-yl)acrylamide], the IC50 is not above 100 nM.
On the same count and under the same terms, as for `C=CC(=O)Nc1ccc2c(N3CC[C@@H](Nc4ncc(Br)cn4)C3)nncc2c1` [Example 50, (R)—N-(1-(3-((5-bromopyrimidin-2-yl)amino)pyrrolidin-1-yl)phthalazin-6-yl)acrylamide], the figure is not above 100 nM.
On to `C#Cc1cnc(N[C@@H]2CCN(c3nncc4cc(NC(=O)C=C)ccc34)C2)nc1` [Example 51, (R)—N-(1-(3-((5-ethynylpyrimidin-2-yl)amino)pyrrolidin-1-yl)phthalazin-6-yl)acrylamide formate], for which the IC50 is not above 100 nM.
On to `C=CC(=O)Nc1ccc2c(N3CC[C@@H](Nc4ncc(Br)cn4)C3)nnc(N3CCC3)c2c1` [Example 52, (R)—N-(4-(azetidin-1-yl)-1-(3-((5-bromopyrimidin-2-yl)amino)pyrrolidin-1-yl)phthalazin-6-yl)acrylamide], for which the concentration for half-maximal inhibition (IC50) was not above 100 nM.
As for `C#Cc1cnc(N[C@@H]2CCN(c3nnc(N4CCC4)c4cc(NC(=O)C=C)ccc34)C2)nn1` [Example 53], the half-inhibitory concentration (IC50) was not above 100 nM.
On the same count and under the same terms, as for `C=CC(=O)Nc1ccc2c(N3CC[C@@H](Nc4ncc(C#N)cn4)C3)nnc(N3CC(C#N)C3)c2c1` [Example 54, (R)—N-(4-(3-cyanoazetidin-1-yl)-1-(3-((5-cyanopyrimidin-2-yl)amino)pyrrolidin-1-yl)phthalazin-6-yl)acrylamide], the figure is not above 100 nM.
